# Assay results taken from PubChem BioAssay AID624254 (Broad Institute, 2012).
# Active and inactive are the calls of the source. The rule behind the calls is not given here.
# Assay: Luciferase light induction in v cholerae bh1651, agonist dose response, confirmatory (AID 624254)
# Conditions: V. cholerae BH1651 luxOD47E, luciferase light induction, 6 h; at 50 µM (top of the series)
row,Compound,activation (light increase)
1,CC(=O)C(CC(=O)N1CCCc2ccccc21)C(=O)Nc1ccc(F)cc1 (configuration not stated),inactive
2,CCCn1nnnc1NCc1ccc(CC)cc1,inactive
3,Cc1ccc(S(=O)(=O)N2Cc3ccccc3CC2C(=O)Nc2ccc3c(c2)OCO3)cc1 (configuration not stated),inactive
4,CC(=O)c1ccc(NC(=O)COc2ccccc2C(=O)Nc2ccccc2)cc1,inactive
5,COc1ccc(S(=O)(=O)N2CCCC(C(=O)NCc3ccncc3)C2)cc1 (configuration not stated),inactive
6,C[C@H](CO)N1C[C@H](C)[C@H](CN(C)S(=O)(=O)c2cccs2)Oc2c(NC(=O)C3CC3)cccc2C1=O,inactive
7,CCC1C(=O)NCCN1C(=O)CCc1nnc(CCc2ccc(OC)cc2)o1 (configuration not stated),inactive
8,CC(C)c1ccc(OCC(=O)NC2CCCC2)cc1,inactive
9,CCC(=O)c1ccc(N2CCCCCC2)c(F)c1,inactive
10,COc1ccc(Cl)cc1NC(=O)CN(C)C(=O)CNC(=O)C12CC3CC(CC(C3)C1)C2,inactive
11,CC(C#N)On1c(SC(C)C#N)nc2ccccc2c1=O (configuration not stated),inactive
12,O=C(NCCS(=O)(=O)N1CCN(c2ccccc2)CC1)c1ccco1,inactive
13,Cc1nn2cnnc2c(C)c1Cc1c(F)cccc1Cl,inactive
14,CC(C)Oc1ccc(C(=O)Nc2cc(S(=O)(=O)N3CCOCC3)ccc2N2CCOCC2)cc1,inactive
15,COc1cc(C(N)=O)cc(Br)c1OC,inactive
16,CCOC(=O)C1CCN(C(=O)C2c3ccccc3C(=O)N(C)C2c2ccc(OC)cc2)CC1 (configuration not stated),inactive
17,Oc1ccc(-c2cn3c(n2)SCC3)cc1,inactive
18,CC(C)NC(=O)c1cnc(Sc2ncc(C(F)(F)F)cc2Cl)n1C,inactive
19,CCOC(=O)c1ccccc1NC(=O)COC(=O)C1=COCCO1,inactive
20,Cc1noc(C)c1NC(=O)Nc1cccc2c1O[C@H](CN(C)S(=O)(=O)c1cccs1)[C@H](C)CN([C@@H](C)CO)C2=O,inactive
21,CCCCNC(=O)CN(c1cccc(Br)c1)S(C)(=O)=O,inactive
22,Cc1nnc2c3ccccc3c(-c3ccc(O)cc3)nn12,inactive
23,O=C(c1ccc2c(c1)OCO2)N(Cc1ccco1)C1(C(=O)NC2CCCCC2)CCCCC1,inactive
24,O=C(Nc1c(F)c(F)c(F)c(F)c1F)C1CCCCC1,inactive
25,C[C@H]1CN([C@@H](C)CO)C(=O)c2cccc(NC(=O)Nc3ccc4c(c3)OCO4)c2O[C@H]1CN(C)S(=O)(=O)c1ccccc1,inactive

row,Compound,activation (light increase)
1,COC(=O)[C@H]1C[C@H](C(=O)O)[C@@H](C)C1(C)C,inactive
2,Cc1ccc(CN2C(=O)CCC2C(=O)NCCN(CC(C)C)CC(C)C)cc1 (configuration not stated),inactive
3,Cc1ccc2cc(C(c3nnnn3C3CCCC3)N3CCN(c4ccc(F)cc4)CC3)c(=O)[nH]c2c1 (configuration not stated),inactive
4,COc1ccc(NC(=O)CSc2ccc3c(c2)OCCO3)cc1OC,inactive
5,O=C(NCc1ccccc1)C1CCCN(S(=O)(=O)c2cccnc2)C1 (configuration not stated),inactive
6,O=C(Nc1cccc(-c2ccc(N3CCOCC3)nn2)c1)c1ccccc1Cl,inactive
7,Cc1ccc(OCCCC(=O)N(C)CC(=O)Nc2ccccc2Cl)cc1,inactive
8,CCCNC(=O)COC(=O)/C=C/c1ccc(C)o1,inactive
9,COC(=O)c1ccc(C2C(C(C)=O)=C(O)C(=O)N2CCO)cc1 (configuration not stated),inactive
10,Cc1cc(C(C)(C)C)oc1C(=O)OCC(=O)NC1CCCCC1,inactive
11,O=S(=O)(Nc1cccnc1)c1ccc(Oc2ccccc2)cc1,inactive
12,Cc1ccc(C)c(OCCC(=O)OCC(=O)NC2CC2)c1,inactive
13,Brc1ccc(C2=Nn3c(nnc3-c3n[nH]c4c3CCC4)SC2)cc1,inactive
14,O=S(=O)(Nc1ccc(-c2ccc3nncn3n2)cc1)c1ccc(Cl)s1,inactive
15,CC(C)CNC(=O)COC(=O)/C=C/c1ccco1,inactive
16,CCOc1ccc2nc(SCC(=O)NC(=O)NCc3ccco3)[nH]c2c1,inactive
17,Cc1ccc(C(=O)OCC(=O)NC2CCCC2)cc1C,inactive
18,CN(C)C(=O)c1ccccc1NS(=O)(=O)c1cn(C)cn1,inactive
19,CC(=O)c1c(N2CCC(C(N)=O)CC2)nc(=S)n(-c2ccccc2)c1C,inactive
20,Cc1cc(OC(F)F)ccc1NC(=S)NCCc1ccccc1,inactive
21,Cn1cnc(S(=O)(=O)Nc2ccc(C(F)(F)F)cc2)c1,inactive
22,Cc1cccc(NC(=O)CS(=O)(=O)c2cn(C)c3ccccc23)c1C,inactive
23,CC(C)CNC(=O)c1c2c(nc3ccccc13)-c1ccccc1CC2,inactive
24,Cc1ccc(C)c(NC(=O)CN(C)C(=O)CCN2C(=O)c3ccccc3C2=O)c1,inactive
25,O=C(CCc1nc(-c2ccccc2)no1)N1CCCC1,inactive

row,Compound,activation (light increase)
1,O=C(c1cc(-c2cccs2)nn1-c1ccccc1)N1CCN(S(=O)(=O)c2ccccc2)CC1,inactive
2,Cc1ccc(C)n1-c1sc2c(c1C#N)CCC(C)C2 (configuration not stated),inactive
3,O=C(NCCN1CCOCC1)c1cccc(NS(=O)(=O)c2ccc(Br)cc2)c1,inactive
4,Cc1ccc(S(=O)(=O)NCCC(=O)OCC(=O)N(Cc2ccccc2)C(C)(C)C)cc1C,inactive
5,C[C@@H]1CN([C@@H](C)CO)C(=O)c2cccc(NC(=O)C3CC3)c2O[C@H]1CN(C)S(=O)(=O)c1cccs1,inactive
6,C[C@@H]1CN([C@H](C)CO)C(=O)c2cccc(NC(=O)C3CC3)c2O[C@@H]1CN(C)S(=O)(=O)c1cccs1,inactive
7,CCN(CC(=O)Nc1c(F)cccc1F)C(=O)C1CC(=O)N(c2ccccc2OC)C1 (configuration not stated),inactive
8,Cc1cc(C(=O)CSc2nnc(-c3ccco3)o2)c(C)n1CC1COc2ccccc2O1 (configuration not stated),inactive
9,c1cn2cc(CN3CCOCC3)nc2s1,inactive
10,COc1ccccc1NC(=O)COC(=O)c1cc(C)oc1C,inactive
11,CCCn1nnnc1SCC(=O)c1ccc2c(c1)OCCO2,inactive
12,O=C(Nc1ccc(Cl)c(Cl)c1)Nc1ccccc1C(=O)O,inactive
13,Cc1ccc(Oc2ccc(Cl)cc2NC(=O)c2cnccn2)cc1,inactive
14,Cc1cccc(OC(C)C(=O)NC2CCS(=O)(=O)C2)c1C (configuration not stated),inactive
15,CCc1nc(NCCCN2CCOCC2)c2oc3ccccc3c2n1,inactive
16,O=C(NCC1CCCO1)C1CCN(C(=O)c2ccc(Cl)cc2)CC1 (configuration not stated),inactive
17,CCCCOC(=O)n1c(=O)oc2ccccc21,inactive
18,CC12CCC(=O)N1C(C(=O)NNC(=O)COc1ccc(Br)cc1)CS2 (configuration not stated),inactive
19,Cc1ccc(C(=O)OCC(=O)Nc2ccccc2)cc1NC(=O)c1ccco1,inactive
20,Cn1cnc(S(=O)(=O)Nc2ccc(-c3ccccc3)cc2)c1,inactive
21,COc1ccc(C(CNC(=O)c2ccc(-c3cccc(C(F)(F)F)c3)o2)N2CCOCC2)cc1 (configuration not stated),inactive
22,Cn1cnc(S(=O)(=O)Nc2ccc(F)cc2)c1,inactive
23,Cc1ccccc1OC(C)c1nc(-c2ccccc2)no1 (configuration not stated),inactive
24,O=C(NCc1ccc2c(c1)OCO2)C1CCCN1C(=O)Nc1cccc(Cl)c1 (configuration not stated),inactive
25,CC(=O)Nc1ccccc1NS(=O)(=O)c1cn(C)cn1,inactive

row,Compound,activation (light increase)
1,COCCN(C(=O)C1CCC1)c1nnc(-c2cccnc2)s1,inactive
2,Cc1cccc(-c2noc(CN(C(=O)C34CC5CC(CC(C5)C3)C4)C(C)C)n2)c1,inactive
3,CCc1nnc(NC(=O)C2CC(=O)N(c3ccc(C)cc3)C2)s1 (configuration not stated),inactive
4,COc1ccc(C(=O)O)cc1S(=O)(=O)Nc1cccc(C(F)(F)F)c1,inactive
5,COc1cc(C(C)=O)ccc1OCC(=O)Nc1cc(Cl)ccc1-n1cncn1,inactive
6,NNC(=O)c1nnn(-c2nonc2N)c1CN1CCCC1,inactive
7,CCOC(=O)Cn1nc(C)n(-c2ccc(C(C)C)cc2)c1=O,inactive
8,O=C(Oc1ccnc2cc(Cl)ccc12)N1CCCCCC1,inactive
9,COC(=O)C1CCN(C(=O)CN(C)Cc2ccc(C(C)(C)C)cc2)CC1,inactive
10,CCCc1cc(=O)[nH]c(Nc2ccc(N3CCCCC3)cc2)n1,inactive
11,Cn1cnnc1SCCOc1ccc(Cl)cc1,inactive
12,COc1cc(NC(=O)CN2C(=O)NC(c3ccccc3)(c3ccccc3)C2=O)cc(OC)c1,inactive
13,CCCCN(Cc1nc2ccccc2c(=O)[nH]1)C(=O)CN1C(=O)NC2(CCCCC2)C1=O,inactive
14,Cc1nc(=O)c(-c2ccccc2)c(C)n1CCCCCC(=O)O,inactive
15,CNC(=O)c1cc2cc(OC)ccc2n1CCN(Cc1ccccc1)Cc1ccccc1,inactive
16,CCC(C)(C)n1nnnc1CN1CCN(c2nc3ccc(C)cc3cc2C#N)CC1,inactive
17,O=C1C(=O)N(Cc2ccco2)C(c2cccc(Cl)c2)/C1=C(\O)c1ccc2c(c1)OCCO2 (configuration not stated),inactive
18,Cc1cc(C)c(S(=O)(=O)Nc2ccccn2)c(C)c1,inactive
19,CCOC(=O)c1nnn(-c2nonc2N)c1CN1CCc2ccccc2C1,inactive
20,C=Cn1c(C(=O)O)ccc1-c1ccc(Cl)cc1,inactive
21,Cc1cccc(NC(=O)CSc2nc(=O)n(CCN3CCOCC3)c3c2CCCC3)c1C,inactive
22,Cc1onc(-c2ccccc2)c1C(=O)N1CCOCC1,inactive
